The structures appear in SMILES notation.

The source of these data is ChEMBL document CHEMBL3526086, “Identification of the oxidative and conjugative enzymes involved in the biotransformation of brivanib” (Drug Metab Dispos, 2012).

Series [1] relates to Liver cytosol. In words: Drug metabolism in human liver cytosol assessed as (R)-4-fluoro-5-(5-methyl-6-(2-sulfopropoxy)pyrrolo[1,2-f][1,2,4]triazin-4-yloxy)-1H-indole-2-carboxylic acid formation at 2 uM for 60 mins by LC/MS analysis in presence of PAPS. In kind it is ADME.
Series [2] relates to Liver cytosol. The series can be described thus: Drug metabolism in human liver cytosol assessed as (R)-4-fluoro-5-(6-(2-hydroxypropoxy)-5-methylpyrrolo[1,2-f][1,2,4]triazin-4-yloxy)-1H-indole-2-carboxylic acid formation at 2 uM for 60 mins by LC/MS analysis. In kind it is ADME, tissue-based.
The test system of series [3] is Liver cytosol. In words: Drug metabolism in human liver cytosol assessed as sulfate conjugate formation at 2 uM for 60 mins in absence of PAPS by LC/MS analysis. Format: ADME, tissue-based. Particulars: 1 h.
The test system of series [4] is Liver cytosol. The series can be described thus: Drug metabolism in human liver cytosol assessed as (R)-4-fluoro-5-(6-(2-hydroxypropoxy)-5-methylpyrrolo[1,2-f][1,2,4]triazin-4-yloxy)-1H-indole-2-carboxylic acid formation at 2 uM for 60 mins by LC/MS analysis in presence of NADPH. In kind it is ADME.
In series [5] the test system is Liver cytosol. The series can be described thus: Drug metabolism in human liver cytosol assessed as (R)-1-(4-(4-fluoro-2-(hydroxymethyl)-1H-indol-5-yloxy)-5-methylpyrrolo[1,2-f][1,2,4]triazin-6-yloxy)propane-2-sulfonic acid formation at 2 uM for 60 mins by LC/MS analysis in presence of PAPS. Format: ADME.
Series [6] concerns Liver microsome. The series can be described thus: Drug metabolism in human liver microsomes assessed as (R)-4-fluoro-5-(6-(2-hydroxypropoxy)-5-methylpyrrolo[1,2-f][1,2,4]triazin-4-yloxy)-1H-indole-2-carboxylic acid formation at 2 uM for 60 mins by LC/MS analysis in presence of NADPH. Format: ADME.
Series [7] deals with Liver microsome. The series can be described thus: Drug metabolism in human liver microsomes assessed as (R)-4-fluoro-5-(6-(2-hydroxypropoxy)-5-methylpyrrolo[1,2-f][1,2,4]triazin-4-yloxy)-1H-indole-2-carboxylic acid formation at 2 uM for 60 mins by LC/MS analysis. In kind it is ADME. Background: Liver microsomes are vesicles of endoplasmic reticulum, rich in cytochrome P450 enzymes.

For the compound `Cc1c(OC[C@@H](C)O)cn2n[14cH]nc(Oc3ccc4[nH]c(CO)cc4c3F)c12`, the Drug metabolism entry is “metabolite_detected” in the series with Liver cytosol [1]; “metabolite_detected” in the series with Liver cytosol [2]; “metabolite_not_detected” in the series on Liver cytosol [3]; “metabolite_detected” in the series on Liver cytosol [4]; “metabolite_detected” in the series on Liver cytosol [5]; “metabolite_detected” in the series on Liver microsome [6]. In addition, the Drug metabolism result in the series with Liver microsome [7] is given as “metabolite_not_detected”.
